Publication PMC3828334, “Tumor Cell Death Mediated by Peptides That Recognize Branched Intermediates of DNA Replication and Repair” (PLoS ONE, 2013)
Where “and” joins values, the source holds several entries; their conditions need not be identical. Equal entries are not always repeated. Positions of bridges follow the written chain, without caps; N, C: chain ends. Non-standard residues stand in square brackets, D forms with d. Residues, ends and D or L forms follow the SMILES beside them. Chains are numbered I, II in the order given.

What was measured:
[1] = tested on: 53BP1 in PC3 cells; test: 53BP1 foci by fluorescence microscopy; assay type: cell-based; conditions: PC3, 48 h
Experimental: 200,000 PC3 cells were plated on cover-slips (Fisherbrand) mounted on each well of the 12-well dishes and allowed to attach overnight at 37°C incubator with 5% CO2. The cells were treated with 50, 100, 150, or 200 µM of wrwycr, or 1, 5, 10, 25, or 50 µM of wrwyrggrywrw for 48 h. […] The samples were probed with 1∶500 diluted mouse anti-γH2AX antibody (Millipore) or 1∶1000 diluted rabbit anti-53BP1 (Novus-Biologicals) with overnight incubation followed by Dylight anti-mouse or anti-rabbit secondary antibodies (Biolegend) respectively. DAPI (5 µg/ml) was used to stain the nucleus. The stained cells on the coverslips were mounted on the glass slides and observed with a Zeiss inverted microscope with AxioVision 4.8 software and using the 100× magnification. Foci of 53BP1 were counted manually and the average number of foci per cell was calculated.

[2] = tested on: HeLa cells; test: Live/Dead assay by flow cytometry, HeLa; assay type: cell-based; conditions: ± standard error, at least 4 replicates
Experimental: PC3 or HeLa cells were seeded at 400,000 or 500,000 cells per well respectively in 6-well tissue culture plates (BD Falcon) and allowed to attach overnight at 37°C with 5% CO2. The cells were incubated with different concentrations of d-wrwycr for 24 or 48 h respectively before the cells were lifted off from the plate. Cell pellets were resuspended in 200 µl of dye solution containing either cell-permeable calcein AM and/or cell-impermeant ethidium homodimer according to the manufacturer's protocol (Live/dead cytotoxicity kit for mammalian cells, Invitrogen and reference). Data were collected in BDFacs Canto and analyzed using FACSDiva software (Becton-Dickenson).

[3] = tested on: U2OS cell lines vs IMR 90 cells; conditions: cited from earlier work
From the text: A major challenge of cancer treatment is drug delivery. The intact cell membrane protects the cellular components from its surroundings, restricting hydrophilic molecules from entering the cell and allowing only small molecules to cross the membrane. The presence of hydrophobic and basic amino acid residues in peptide wrwycr probably helps it cross the cancer cell membrane more efficiently than normal cells, similar to the cell penetrating peptides (CPPs).

[4] = tested on: Htog1 cells (variant of HeLa cells); test: Cytochrome C release / TMRE assay for apoptosis; assay type: cell-based; conditions: 24 h, confocal microscopy
Experimental: 200,000 Htog1 cells (variant of HeLa cells, a generous gift from Drs. Terrence Frey and Maria Guo) were seeded on cover slips mounted on 35 mm microwell petri dishes (Mattek Corp, Ashland, MA) with DMEM supplemented with 10% FBS and allowed to attach overnight at 37°C in 5% CO2. The media was replaced with 1 ml of the appropriate treatment and incubated for 24 h. After 23 h of treatment, 50 µM tetramethyl rhodamine ethyl ester perchlorate (TMRE) solution was added to each well (final concentration 50 nM) and incubated for the remaining hour. Cytochrome C release and loss of TMRE staining were determined in Z-series images acquired using a Leica TCS SP2 inverted confocal microscope. GFP was excited using 488 nm wavelength from an Ar/Kr laser attenuated to 33%, and the emitted fluorescence detected at 497–553 nm. TMRE fluorescence was excited using a 543 nm wavelength from an Ar/Kr laser attenuated to 35%, and the emitted fluorescence detected at 555–620 nm. Each cell was analyzed for release of GFP (GFP channel), loss of mitochondrial membrane potential (TMRE loss) or morphological abnormalities associated with apoptosis, and the % cells positive for each hallmark was calculated for the various treatments.

[5] = tested on: Holliday junctions vs replication forks; conditions: in vitro; ref [20], [22], [26]; cited from earlier work
From the text: Our laboratory previously identified peptides and small molecules that bind to Holliday junctions and replication fork mimics, branched DNA structures that are intermediates in DNA repair [18]–[23]. […] In addition to binding HJs in vitro, peptide wrwycr also binds Holliday junctions in vivo [24] and is synergistically toxic with DNA-damaging agents including mitomycin C, UV, H2O2, and topoisomerase inhibitors in bacteria ([25]; Naili, ...

[6] = tested on: Du145 cells; assay type: cell-based; conditions: 24 h
[7] = tested on: caspase-3 in PC3 cells; test: Caspase-3 assay (Ac-DEVD-AFC cleavage); assay type: cell-based; conditions: PC3, 50–200 µM, 12–48 h
Experimental: 400,000 PC3 cells were plated in a 6-well plate (BD Falcon) at a concentration of 200,000 cells/ml and were allowed to attach overnight at 37°C with 5% CO2 and treated with 50–200 µM wrwycr for 12, 24 or 48 h. The wrwycr-treated cell lysates were incubated with Ac-DEVD (Asp-Glu-Val-Asp)-AFC, a caspase-3 substrate, for 1 h. Activated caspase-3 will cleave between the DEVD and AFC, releasing latter, a fluorogenic compound that can be excited at 400 nm and the resulting emission can be read at 505 nm by the Spectra Max Gemini XS fluorometer plate reader using Softmax Pro version 3.1.2 software. The total protein concentration was calculated for each sample by using BioRad protein assay kit. To normalize the fluorescence reading (RFU) for each sample, the reading for each sample was divided by the corresponding protein concentration of the samples.

[8] = tested on: PPC-1 cells; test: MTT assay of cell viability, PPC-1; assay type: cell-based; conditions: 48 h

**Q.** Which results are given for N=C(N)NCCC[C@@H](NC(=O)[C@@H](CSSC[C@@H](NC(=O)[C@@H](Cc1ccc(O)cc1)NC(=O)[C@@H](Cc1c[nH]c2ccccc12)NC(=O)[C@@H](CCCNC(=N)N)NC(=O)[C@H](N)Cc1c[nH]c2ccccc12)C(=O)N[C@H](CCCNC(=N)N)C(N)=O)NC(=O)[C@@H](Cc1ccc(O)cc1)NC(=O)[C@@H](Cc1c[nH]c2ccccc12)NC(=O)[C@@H](CCCNC(=N)N)NC(=O)[C@H](N)Cc1c[nH]c2ccccc12)C(N)=O [wrwycr, Trp-Arg-Trp-Tyr-Cys-Arg] (I: H-[dW][dR][dW][dY][dC][dR]-NH2 / II: H-[dW][dR][dW][dY][dC][dR]-NH2; disulfide I:5-II:5; N-terminus assumed)?
**A.** accumulation of 53BP1 foci [1]: accumulation of 53BP1 protein in a dose-dependent manner; Hela population % Dead ([2]; 100 µM wrwycr): 5.4±2.0%; Hela population %Live ([2]; 100 µM wrwycr): 90.4±2.3%; Hela population % Dead ([2]; 150 µM wrwycr): 7.8±2.7%; Hela population %Live ([2]; 150 µM wrwycr): 86.3±2.5%; Hela population % Dead ([2]; 200 µM wrwycr): 12.7±6.0%; Hela population %Live ([2]; 200 µM wrwycr): 79% and 79.3±4.5%; uptake in U2OS cell lines relative to non-tumor derived IMR 90 cells [3]: 3 ×; cytochrome C release or loss of TMRE [4]: little or no cytochrome C release or loss of TMRE; higher affinity for HJs than replication forks [5]: 2–5 fold; IC50 [6]: 150 to 200 µM; caspase-3 activation compared to DMSO control [7]: no significant activation of caspase-3; IC50 [8]: the same IC50 as the PC3 cell line
